From patent US7745120B2, “Cell culture and method for screening for a compound useful in the treatment or prevention of hepatic cirrhosis” (Industrial Technology Research Institute, priority 2004, dated 2010)
Entries after “also recorded” stand apart in the source; their conditions may differ.

Experiments:
Type in all cases: cell-based, human
[1] = tested on: immortalized hepatocyte THLE-2 and immortalized HSC coculture; assay: methylene blue assay of cell activity in thioacetamide-damaged co-culture of normal hepatocytes and HSCs; conditions: THLE-2 / HSC co-culture; interferon-α 1000, 5000, 10000 IU/ml added 3 hours before thioacetamide; read after another 24 hours; FIG. 11C
Experimental: To compare the cells in the present example with the normal hepatocytes and HSCs after drug treatment, immortalized human hepatocytes THLE-2 (ATCC NO: CRL-2706, normal primary hepatocytes immortalized by SV40 large T antigen gene) and untransfected human HSCs were co-cultured following procedures described as the above. After 24 hours, 1000,5000,10000 IU/ml of interferon-αwere added. Thioacetamide was applied to damage the cells after 3 hours. After another 24 hours, the cell activity was examined by methylene blue assay, and the result is shown as FIG. 11C. The result corresponds to that of the cell model for drug screening with pLpLhyg-PAlb5/3-EGFP transfected cells (FIG. 11A).

[2] = tested on: Huh-7PALB-EGFP and immortalized HSC coculture; assay: methylene blue assay of cell activity in thioacetamide-damaged co-culture; conditions: interferon-α 1000, 5000, 10000 IU/ml added 3 hours before 100 mM thioacetamide; read after 24 hours; FIG. 11A
Experimental: Modified human HSCs and Huh-7 cells obtained from examples 1 and 6 were co-cultured via layer by layer culturing. Immortalized human HSCs were cultured in a 24-well culture plate, wherein each well was coated with extracellular matrix before use. The extracellular maxtrix used in the present example was Type I collagen or Matrigel. Six hours after the HSCs were attached, Huh-7 cells carrying albumin promoter (pLpLhyg-PAlb5/3-EGFP) (Huh-7PALB-EGFP) were subsequently cultured on the top of the attached HSCs.
One day later, 1000, 5000, 10000 IU/ml of interferon-α(F. Hoffman-La Roche, Ltd.) was added into cells respectively. Three hours later, 100 mM of thioacetamide (Sigma-Aldrich, Co.) was added to damage the cells. After 24 hours, methylene blue assay was conducted for analyzing the cell activity. In the meantime, the intensity of green fluorescence was determined by a fluorescence reader, and the result is shown in FIG. 11B.

[3] = tested on: Huh-7PALB-EGFP and immortalized HSC coculture; assay: green fluorescence intensity (EGFP reporter under albumin promoter) by fluorescence reader in thioacetamide-damaged co-culture; conditions: interferon-α 1000, 5000, 10000 IU/ml added 3 hours before 100 mM thioacetamide; read after 24 hours; two independent experiments, average of 3 wells; FIG. 11B
Experimental: The fluorescence signal expressed from transfected cells of example 5 was observed under a fluorescence microscope, and the fluorescence intensity was analyzed by image analysis software. Fluorescence intensity of EGFP was determined by a fluorescence reader and an fluorescence ELISA reader. The excitation wavelength was 488 nm, and the emission wavelength was 510 nm while the green fluorescence from the EGFP gene was detected. When the red fluorescence from DsRed gene was detected, the excitation wavelength was 558 nm, and the emission wavelength was 583 nm. A flow cytometry (for example, FACSCalibur, Becton Dickinson, Inc.) can also be used to determine the intensity of fluorescence.
Modified human HSCs and Huh-7 cells obtained from examples 1 and 6 were co-cultured via layer by layer culturing. Immortalized human HSCs were cultured in a 24-well culture plate, wherein each well was coated with extracellular matrix before use. The extracellular maxtrix used in the present example was Type I collagen or Matrigel. […]
One day later, 1000, 5000, 10000 IU/ml of interferon-α(F. Hoffman-La Roche, Ltd.) was added into cells respectively. […] In the meantime, the intensity of green fluorescence was determined by a fluorescence reader, and the result is shown in FIG. 11B.

## interferon-α
[1]
  effect on damage from thioacetamide, methylene blue assay (cell activity): decreased the damage from thioacetamide
[2]
  effect on damage from thioacetamide, methylene blue assay (cell activity): decreased the damage from thioacetamide; also recorded: decreased cell damaged by thioacetamide
[3]
  effect on damage from thioacetamide, fluorescence intensity expressed by Huh-7PALB-EGFP: decreased the damage from thioacetamide; also recorded: decreased cell damaged by thioacetamide
